Experiments:
AD-PHFs = AD-PHFs (Homo sapiens, UniProt P10636); assay: Inhibition assay, displacement of [3H]-AST from AD-PHFs; details: inhibition of [3H]-AST binding; Ki values only in Fig. 2E
[1] = test system: AD-PHF immobilized on CM5 sensor chip; assay: Surface plasmon resonance on immobilized AD-PHFs; assay type: binding, human; details: SPR, AD-PHFs versus aggregated amyloid
[2] = Parallel artificial membrane permeability assay; details: PAMPA, pH 7.4
[3] = test system: synthetic Aβ peptide (Aβ1–42) aggregates; assay: Scatchard analysis of [3H]-AST binding to Aβ peptide aggregates; details: amyloid aggregates
AD-PHF = AD-PHF (Homo sapiens, UniProt P10636); assay: Double staining immunofluorescence of AD-PHFs with PHF-1 antibody and LNS; details: LNS 0.1 %
AD-PHF, sequence (P10636 623-758 limits assumed): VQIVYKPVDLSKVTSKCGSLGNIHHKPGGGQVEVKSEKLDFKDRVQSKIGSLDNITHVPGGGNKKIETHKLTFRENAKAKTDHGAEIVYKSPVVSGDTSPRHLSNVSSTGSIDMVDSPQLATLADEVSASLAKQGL

[4] = molecular target: heparin-induced tau filaments (HITF) (Homo sapiens, UniProt P10636); assay: Inhibition assay, displacement of [3H]-AST from HITF; details: inhibition of [3H]-AST binding; Ki values only in Fig. 2E
heparin-induced tau filaments (HITF), sequence (P10636 1-441 isoform P10636-8): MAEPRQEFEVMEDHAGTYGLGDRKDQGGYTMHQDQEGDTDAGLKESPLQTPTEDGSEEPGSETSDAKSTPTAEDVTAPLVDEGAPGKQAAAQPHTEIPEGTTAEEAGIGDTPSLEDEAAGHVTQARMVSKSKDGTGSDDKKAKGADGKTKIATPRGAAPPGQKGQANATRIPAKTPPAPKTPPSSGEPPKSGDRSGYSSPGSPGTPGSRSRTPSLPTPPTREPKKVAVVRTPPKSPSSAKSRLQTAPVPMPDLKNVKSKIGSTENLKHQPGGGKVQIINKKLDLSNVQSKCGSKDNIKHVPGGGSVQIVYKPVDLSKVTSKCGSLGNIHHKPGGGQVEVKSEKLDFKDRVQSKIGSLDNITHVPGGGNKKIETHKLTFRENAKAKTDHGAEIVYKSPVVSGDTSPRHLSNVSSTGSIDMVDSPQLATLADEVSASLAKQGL

AD-PHFs, sequence (P10636 623-758 limits assumed): as the sequence (P10636 623-758 limits assumed) above

| Papp at 16 h [2] [×10⁻⁶ cm/s] | SMILES | affinity for AD-PHFs (relative Ki within the series) (AD-PHFs) | response curves (RU) on AD-PHFs surface compared to amyloid surface [1] | ratio Bmax/Kd [3] | staining of AD-PHF compared with PHF-1 immunostaining (AD-PHF) | affinity for HITF (relative Ki within the series) [4] |
| --- | --- | --- | --- | --- | --- | --- |
| 145 | COc1ccc(CCN2CCC(Nc3nc4ccccc4n3Cc3ccc(F)cc3)CC2)cc1 [AST, astemizole] | highest affinity for AD-PHFs | at least five times higher | 0.06 |  |  |
|  | Cc1c(OCC(F)(F)F)ccnc1C[S+]([O-])c1nc2ccccc2[nH]1 (stereo not shown) [LNS, lansoprazole] |  | at least five times higher |  | colocalization of the signals from LNS and PHF-1 mAb | highest affinity for HITF |

Reference: paper PMC2951486 (Journal of Alzheimer's disease : JAD, 2010)
